Results on 1 molecule are retold here after patent publication US11351134B2, “Small molecule agents, compositions, and formulations, for internal use, displaying inhibitory activity against gram-positive and/or gram-negative organisms” (NATUREZA, INC., priority 2017, dated 2022).

Holding throughout (assay type): cell-based
For test [1], the system named is S. epidermidis. Kind of test: Broth microdilution MIC of lecithin/chitosan particle compositions. To be noted: Staphylococcus epidermidis; lecithin/chitosan particle composition; prep. mixture pH 5 or pH 7; maximum concentration tested 10 mg/ml; read-out: MIC (mg/ml) for S. epidermidis (chitosan prep. mixture was at pH 5 or at pH 7). A general note: In broth dilution the organism is exposed to a series of concentrations in liquid medium.

Test [2] relates to E. coli. Described as above. Conditions: maximum concentration tested 10 mg/ml; for MIC: Escherichia coli.
The test system of test [3] is Gram-positive pathogens and Gram-negative pathogens. The test is described as follows: In vitro inhibitory activity of chitosan- or carrier-containing particles. Conditions: synthesis (with chitosan) at pH 7 with positively charged chitosan. The source says: For TABLES 1 to 3, compositions were generally prepared as described above, and as further outlined in this paragraph. For these examples, the active component, as a lauric acid derivative or lauric acid, was suspended in an organic solvent, chloroform, and then mixed with water, under robust agitation. The amount of water to the amount of chloroform was at least about 2:1, and could be as high as 10:1. Chloroform was then evaporated (e.g., under vacuum using a freeze dryer). After removal of the chloroform, a 2.2% lecithin solution in an acetate buffer (e.g., 98 mM acetic acid and 2 mM sodium acetate) was prepared and added, so the final amount of the active component was about 1 part active component mixture and about 9 parts of the 2.2% lecithin solution. Of course, it is noted that other ranges to achieve final amount of the active component as described above (e.g., active component mixture and lecithin solution) may also be utilized. Cholesterol could also be optionally added. The mixture of lecithin and the active component was mixed and sonicated, and then a solution of about 1.5% chitosan was added. Thereafter, the entirety of the mixture containing the lecithin and the active component was further blended, in which a final ratio was about 1 part active component to about 9 parts of the 2.2% lecithin solution to about 10 parts of the 1.5% chitosan solution. The pH was then varied, to a pH of 5, or a pH of 7, or a pH of 9. In some mixtures having a pH of 7, a chemical agent imparting a positive charge to the chitosan was included in a form of glycol chitosan. In these tests, the chemical agent used was glycol. In these examples, the amount of chemical agent, glycol was about one molecule glycol moiety to one molecule chitosan sacharide unit; higher amounts of glycol moieties are also acceptable, while lower amounts of glycol moieties were often found to decrease overall inhibitory activity associated with a composition when formed and tested in vitro. It is noted that negatively charged chitosan containing particles were prepared. […] After mixing, the mixtures could each be filtered through a […] filter. In some tests, the mixtures were sonicated before filtering. Sonication produced small particles. In some studies, particles were freeze dried as a powder (generally, after mixing, sonicating and filtering).
The positive controls were prepared and evaluated in a similar manner. All prepared samples were tested using a broth microdilution test.
This also occurs when the chitosan- or carrier-containing particle includes an active component that has a log P value that is less than 4 and includes a methyl and/or ethyl side chain (e.g., 12-amino-1-dodecanoic acid methyl ester). […]

Read-outs that look alike come from different tables or passages of the source.

In the case of `COC(=O)CCCCCCCCCCCN.Cl` [12-amino-1-dodecanoic acid methyl ester HCl], the MIC in test [1] stood at 10 mg/mL; in test [2] (lecithin/chitosan particle composition, prep. mixture pH 9, read-out: MIC (mg/ml) for E. coli (chitosan prep. mixture was at pH 9)), 10 mg/mL; in test [2] (lecithin/glycol chitosan particle composition, prep. mixture pH 7, read-out: MIC (mg/ml) for E. coli (chitosan prep. mixture was at pH 7 with glycol chitosan)), 0.8 mg/mL. Also, in test [2] (lecithin/chitosan particle composition, prep. mixture pH 5 or pH 7), the “MIC (mg/ml) for E. coli (chitosan prep. mixture was at pH 5 or at pH 7)” value was “— (no inhibitory activity)”. Besides, in test [3], the “Inhibitory activity against both Gram-positive pathogens and Gram-negative pathogens” value was “stronger inhibitory activity as well as broad spectrum activity”.
